Data taken from patent publication US20110130386A1, “DNA-PK INHIBITORS” (priority 2008, published 2011).

Target: Mammalian DNA-PK (Homo sapiens, UniProt P78527)
Experiment: DNA-PK inhibition assay (ELISA of p53 Ser15 phosphorylation of GST-p53N66)
Assay type: biochemical, Mammalian (isolated from HeLa cell nuclear extract)
Details: DNA-PK from HeLa nuclear extract; mean value; read-out: mean IC50
Method: In order to assess the inhibitory action of the compounds against DNA-PK in vitro, the following assay was used to determine IC50 values.
To the assay mix, varying concentrations of inhibitor (in DMSO at a final concentration of 1%) were added. After 10 minutes of incubation, ATP was added to give a final concentration of […] along with a 30 mer double stranded DNA oligonucleotide (final concentraion of 0.5 ng/ml) to initiate the reaction. After 1 hour with shaking, 150 μl of phosphate buffered saline (PBS) was added to the reaction and 5 μl then transferred to a 96 well opaque white plate containing 45 μl of PBS per well where the GSTp53N66 substrate was allowed to bind to the wells for 1 hour. To detect the phosphorylation event on the serine 15 residue of p53 elicited by DNA-PK a p53 phosphoserine-15 antibody (Cell Signaling Technology) was used in a basic ELISA procedure. An anti-rabbit HRP conjugated secondary antibody (Pierce) was then employed in the ELISA before the addition of chemiluminescence reagent. (NEN Renaissance) to detect the signal as measured by chemiluminescent counting via a TopCount NXT (Packard).
The enzyme activity for each compound is then calculated using the following equation: […]
The results are discussed below as IC50 values (the concentration at which 50% of the enzyme activity is inhibited). These are determined over a range of different concentrations, normally from 10 μM down to 0.001 μM. Such IC50 values are used as comparative values to identify increased compound potencies.

| SMILES | IC50 |
| --- | --- |
| CN(Cc1ccc(-c2cccc3c(=O)cc(N4CCOCC4)oc23)c2sc3ccccc3c12)Cc1cncn1C [4cd] | 68.4 nM |
| CCN(CC)Cc1ccc(-c2cccc3c(=O)cc(N4CCOCC4)oc23)c2sc3ccccc3c12 [4y] | 1960 nM |
| C=CCNCc1ccc(-c2cccc3c(=O)cc(N4CCOCC4)oc23)c2sc3ccccc3c12 [4i] | 883 nM |
| O=c1cc(N2CCOCC2)oc2c(-c3ccc(CN4CCC(C(F)(F)F)CC4)c4c3sc3ccccc34)cccc12 [4ao] | 5430 nM |
| CN1CCC(NCc2ccc(-c3cccc4c(=O)cc(N5CCOCC5)oc34)c3sc4ccccc4c23)CC1 [4cl] | 47.2 nM |
| CN1CCCC(NCc2ccc(-c3cccc4c(=O)cc(N5CCOCC5)oc34)c3sc4ccccc4c23)C1 (stereo not drawn) [4ck] | 16.1 nM |
| O=c1cc(N2CCOCC2)oc2c(-c3ccc(CN4CCC[C@@H]4CO)c4c3sc3ccccc34)cccc12 [4bt] | 174 nM |
| O=c1cc(N2CCOCC2)oc2c(-c3ccc(CNCCCn4ccnc4)c4c3sc3ccccc34)cccc12 [4ax] | 26.5 nM |
| O=c1cc(N2CCOCC2)oc2c(-c3ccc(CN4CCCCO4)c4c3sc3ccccc34)cccc12 [4bo] | 2070 nM |
| COCC1CCCN1Cc1ccc(-c2cccc3c(=O)cc(N4CCOCC4)oc23)c2sc3ccccc3c12 (stereo not drawn) [4at] | 884 nM |
| O=c1cc(N2CCOCC2)oc2c(-c3ccc(CN4CCCC(C(F)(F)F)C4)c4c3sc3ccccc34)cccc12 (stereo not drawn) [4ap] | 2140 nM |
| CN(C)CC(C)(C)CNCc1ccc(-c2cccc3c(=O)cc(N4CCOCC4)oc23)c2sc3ccccc3c12 [4ay] | 122 nM |
| O=c1cc(N2CCOCC2)oc2c(-c3ccc(CNCCc4ccccc4)c4c3sc3ccccc34)cccc12 [4ct] | 530 nM |
| O=c1cc(N2CCOCC2)oc2c(-c3ccc(CNC4CCS(=O)(=O)C4)c4c3sc3ccccc34)cccc12 (stereo not drawn) [4bd] | 125 nM |
| C[C@H]1COCCN1Cc1ccc(-c2cccc3c(=O)cc(N4CCOCC4)oc23)c2sc3ccccc3c12 [4aj] | 406 nM |
| COc1ccc(N2CCN(Cc3ccc(-c4cccc5c(=O)cc(N6CCOCC6)oc45)c4sc5ccccc5c34)CC2C)cc1 (stereo not drawn) [4o] | 502 nM |
| O=c1cc(N2CCOCC2)oc2c(-c3ccc(CNCc4ccccn4)c4c3sc3ccccc34)cccc12 [4ci] | 177 nM |
| COC[C@H]1CCCN1Cc1ccc(-c2cccc3c(=O)cc(N4CCOCC4)oc23)c2sc3ccccc3c12 [4bf] | 717 nM |
| Cn1cccc1CNCc1ccc(-c2cccc3c(=O)cc(N4CCOCC4)oc23)c2sc3ccccc3c12 [4ce] | 291 nM |
| CC(NCc1ccc(-c2cccc3c(=O)cc(N4CCOCC4)oc23)c2sc3ccccc3c12)c1nccs1 (stereo not drawn) [4bb] | 777 nM |
| O=c1cc(N2CCOCC2)oc2c(-c3ccc(CNCCc4ccccn4)c4c3sc3ccccc34)cccc12 [4aw] | 69.6 nM |
| CN(C)Cc1ccc(-c2cccc3c(=O)cc(N4CCOCC4)oc23)c2sc3ccccc3c12 [4m] | 293 nM |
| O=c1cc(N2CCOCC2)oc2c(-c3ccc(CNCc4ccccc4)c4c3sc3ccccc34)cccc12 [4b] | 248 nM |

| SMILES | IC50 |
| --- | --- |
| CN(C)CCNCc1ccc(-c2cccc3c(=O)cc(N4CCOCC4)oc23)c2sc3ccccc3c12 [4d] | 12.6 nM |
| CC(CN(C)C)NCc1ccc(-c2cccc3c(=O)cc(N4CCOCC4)oc23)c2sc3ccccc3c12 (stereo not drawn) [4bk] | 32 nM |
| N[C@@H]1CCCC[C@@H]1NCc1ccc(-c2cccc3c(=O)cc(N4CCOCC4)oc23)c2sc3ccccc3c12 [4bn] | 115 nM |
| O=c1cc(N2CCOCC2)oc2c(-c3ccc(CNn4cnnc4)c4c3sc3ccccc34)cccc12 [4cp] | 94.6 nM |
| O=c1cc(N2CCOCC2)oc2c(-c3ccc(CNC4=NCCS4)c4c3sc3ccccc34)cccc12 [4cf] | 174 nM |
| C[C@@H]1CN(Cc2ccc(-c3cccc4c(=O)cc(N5CCOCC5)oc34)c3sc4ccccc4c23)C[C@H](C)O1 [4q] | 83.3 nM |
| O=c1cc(N2CCOCC2)oc2c(-c3ccc(CN4CCOC(CO)C4)c4c3sc3ccccc34)cccc12 (stereo not drawn) [4al] | 72.5 nM |
| O=c1cc(N2CCOCC2)oc2c(-c3ccc(CNCc4ccncc4)c4c3sc3ccccc34)cccc12 [4cg] | 139 nM |
| CCN1CCCC1CNCc1ccc(-c2cccc3c(=O)cc(N4CCOCC4)oc23)c2sc3ccccc3c12 (stereo not drawn) [4cn] | 57.3 nM |
| O=c1cc(N2CCOCC2)oc2c(-c3ccc(CNCCO)c4c3sc3ccccc34)cccc12 [4c] | 22.6 nM |
| CN(Cc1ccccc1)Cc1ccc(-c2cccc3c(=O)cc(N4CCOCC4)oc23)c2sc3ccccc3c12 [4s] | 942 nM |
| N#Cc1cccn1NCc1ccc(-c2cccc3c(=O)cc(N4CCOCC4)oc23)c2sc3ccccc3c12 [4cm] | 956 nM |
| CN(Cc1ccc(-c2cccc3c(=O)cc(N4CCOCC4)oc23)c2sc3ccccc3c12)Cc1ccnn1C [4cc] | 321 nM |
| CN1CCCCC1CNCc1ccc(-c2cccc3c(=O)cc(N4CCOCC4)oc23)c2sc3ccccc3c12 (stereo not drawn) [4bc] | 10.5 nM |
| O=c1cc(N2CCOCC2)oc2c(-c3ccc(CNCc4nccs4)c4c3sc3ccccc34)cccc12 [4cj] | 193 nM |
| CN(C)CCN(C)Cc1ccc(-c2cccc3c(=O)cc(N4CCOCC4)oc23)c2sc3ccccc3c12 [4u] | 27.3 nM |
| N#CCNCc1ccc(-c2cccc3c(=O)cc(N4CCOCC4)oc23)c2sc3ccccc3c12 [4ar] | 29.7 nM |
| Cc1cc(NCc2ccc(-c3cccc4c(=O)cc(N5CCOCC5)oc34)c3sc4ccccc4c23)on1 [4bg] | 299 nM |
| O=c1cc(N2CCOCC2)oc2c(-c3ccc(CNCCCN4CCCC4)c4c3sc3ccccc34)cccc12 [4ba] | 17.3 nM |
| O=c1cc(N2CCOCC2)oc2c(-c3ccc(CNCC4CCCO4)c4c3sc3ccccc34)cccc12 (stereo not drawn) [4a] | 31.2 nM |
| Cc1n[nH]c(NCc2ccc(-c3cccc4c(=O)cc(N5CCOCC5)oc34)c3sc4ccccc4c23)n1 [4bi] | 92.9 nM |
| O=c1cc(N2CCOCC2)oc2c(-c3ccc(CN4CCCC(CO)C4)c4c3sc3ccccc34)cccc12 (stereo not drawn) [4r] | 124 nM |

The next lines start with the values.

| IC50 | SMILES |
| --- | --- |
| 1.32 nM | CN(C)[C@H]1CCN(Cc2ccc(-c3cccc4c(=O)cc(N5CCOCC5)oc34)c3sc4ccccc4c23)C1 [4bu] |
| 7.14 nM | O=c1cc(N2CCOCC2)oc2c(-c3ccc(CN4CCNCC4)c4c3sc3ccccc34)cccc12 [4k] |
| 2.05 nM | CN(C)[C@@H]1CCN(Cc2ccc(-c3cccc4c(=O)cc(N5CCOCC5)oc34)c3sc4ccccc4c23)C1 [4bv] |
| 7.92 nM | COCCN1CCN(Cc2ccc(-c3cccc4c(=O)cc(N5CCOCC5)oc34)c3sc4ccccc4c23)CC1 [4t] |
| 96 nM | O=c1cc(N2CCOCC2)oc2c(-c3ccc(CN4CCC(CO)CC4)c4c3sc3ccccc34)cccc12 [4p] |
| 1.21 nM | CN(C)C1CCN(Cc2ccc(-c3cccc4c(=O)cc(N5CCOCC5)oc34)c3sc4ccccc4c23)C1 (stereo not drawn) [4ah] |
| 1010 nM | O=c1cc(N2CCOCC2)oc2c(-c3ccc(CN4CCC(F)(F)C4)c4c3sc3ccccc34)cccc12 [4ca] |
| 6.67 nM | O=c1cc(N2CCOCC2)oc2c(-c3ccc(CN4CCCNCC4)c4c3sc3ccccc34)cccc12 [4cr] |
| 19.8 nM | CN(C)C1CCCN(Cc2ccc(-c3cccc4c(=O)cc(N5CCOCC5)oc34)c3sc4ccccc4c23)C1 (stereo not drawn) [4au] |
| 30.3 nM | O=c1cc(N2CCOCC2)oc2c(-c3ccc(CN4CCC(O)C4)c4c3sc3ccccc34)cccc12 (stereo not drawn) [4l] |
| 1.39 nM | O=c1cc(N2CCOCC2)oc2c(-c3ccc(CN4CCN(CCO)CC4)c4c3sc3ccccc34)cccc12 [4ab] |
| 3.74 nM | CC1CN(Cc2ccc(-c3cccc4c(=O)cc(N5CCOCC5)oc34)c3sc4ccccc4c23)CCN1C (stereo not drawn) [4cb] |
| 886 nM | O=c1cc(N2CCOCC2)oc2c(-c3ccc(CN4CCCCC4)c4c3sc3ccccc34)cccc12 [4cs] |
| 36.1 nM | NC1CCCN(Cc2ccc(-c3cccc4c(=O)cc(N5CCOCC5)oc34)c3sc4ccccc4c23)C1 (stereo not drawn) [4cq] |
| 415 nM | COC1CCN(Cc2ccc(-c3cccc4c(=O)cc(N5CCOCC5)oc34)c3sc4ccccc4c23)CC1 [4am] |
| 1520 nM | CC1CC(C)CN(Cc2ccc(-c3cccc4c(=O)cc(N5CCOCC5)oc34)c3sc4ccccc4c23)C1 (stereo not drawn) [4an] |
| 232 nM | COC1CCCN(Cc2ccc(-c3cccc4c(=O)cc(N5CCOCC5)oc34)c3sc4ccccc4c23)C1 (stereo not drawn) [4af] |
| 77.9 nM | CC(=O)N1CCN(Cc2ccc(-c3cccc4c(=O)cc(N5CCOCC5)oc34)c3sc4ccccc4c23)CC1 [4z] |
| 5.59 nM | CCN1CCN(Cc2ccc(-c3cccc4c(=O)cc(N5CCOCC5)oc34)c3sc4ccccc4c23)CC1 [4aq] |
| 508 nM | O=c1cc(N2CCOCC2)oc2c(-c3ccc(CN4CCC(O)CC4)c4c3sc3ccccc34)cccc12 [4j] |
| 1910 nM | O=c1cc(N2CCOCC2)oc2c(-c3ccc(CN4CCCCCC4)c4c3sc3ccccc34)cccc12 [4x] |
| 433 nM | O=c1cc(N2CCOCC2)oc2c(-c3ccc(CN4CCSC4)c4c3sc3ccccc34)cccc12 [4bq] |
| 975 nM | COc1cccc(N2CCN(Cc3ccc(-c4cccc5c(=O)cc(N6CCOCC6)oc45)c4sc5ccccc5c34)CC2)c1 [4n] |
| 438 nM | O=c1cc(N2CCOCC2)oc2c(-c3ccc(CN4CC[C@H](F)C4)c4c3sc3ccccc34)cccc12 [4bw] |
| 1.75 nM | CC(C)N1CCN(Cc2ccc(-c3cccc4c(=O)cc(N5CCOCC5)oc34)c3sc4ccccc4c23)CC1 [4aa] |
| 1.31 nM | CN1CCN(Cc2ccc(-c3cccc4c(=O)cc(N5CCOCC5)oc34)c3sc4ccccc4c23)CC1 [4v] |
| 257 nM | O=c1cc(N2CCOCC2)oc2c(-c3ccc(CN4CCSCC4)c4c3sc3ccccc34)cccc12 [4bz] |
